“And” between values parts separate entries of the source, which are not always exact repeats. Equal entries are not always repeated.
Molecular target: T1, β-secretase (BACE) (Homo sapiens, UniProt P56817)
T1 construct: purchased Panvera
Assay: BACE FS1 % Inhibition Assay
Type: biochemical
Description: The following reagents were used in this assay: sodium acetate, PEG8000 (Sigma), DMSO, HEPES, FS1 substrate [[…]] […] The FS1-substrate stock solution was prepared in DMSO as a 10 mg/mL solution. The FS1-substrate working solution was prepared by diluting the 10 mg/mL stock solution with substrate assay buffer to a final concentration of 300 μg/mL. The β-secretase (BACE) working solution was prepared by diluting a 0.83 mg/mL BACE stock solution with enzyme assay buffer to a final concentration of 4 μg/mL. Test compounds were dissolved in DMSO to 10 mM. […] The screening procedure for this assay was as follows: 15 μL of BACE working solution was pipetted into each well of a 96-well plate. To each well was then pipetted 2 μL of test compound at the selected concentration. Test compound and BACE were then mixed with a pipettor and incubated for 20 min at room temperature. To each well was then added 10 μL of the FS1 substrate working solution. The plates were then incubated for 1 hour at room temperature. […] The procedure for the blank was as follows. 15 μL of assay buffer was pipetted into each well to be used as a blank control. To each well was then added 2 μL of vehicle and 10 μL of FS1-substrate working solution. The plates were then incubated for 1 hour at room temperature. […] The procedure for the positive control was as follows: 15 μL of BACE working solution was pipetted into each well to be used as a positive control. To each well was then pipetted 2 μL of vehicle. Vehicle and BACE were then mixed with a pipettor and incubated for 20 min at room temperature. To each well was then added 10 μL of the FS1 substrate working solution. The plates were then incubated for 1 hour at room temperature. […] For test compounds, % inhibition was determined at each concentration as follows: [formula]

T1 sequence (P56817 46-501): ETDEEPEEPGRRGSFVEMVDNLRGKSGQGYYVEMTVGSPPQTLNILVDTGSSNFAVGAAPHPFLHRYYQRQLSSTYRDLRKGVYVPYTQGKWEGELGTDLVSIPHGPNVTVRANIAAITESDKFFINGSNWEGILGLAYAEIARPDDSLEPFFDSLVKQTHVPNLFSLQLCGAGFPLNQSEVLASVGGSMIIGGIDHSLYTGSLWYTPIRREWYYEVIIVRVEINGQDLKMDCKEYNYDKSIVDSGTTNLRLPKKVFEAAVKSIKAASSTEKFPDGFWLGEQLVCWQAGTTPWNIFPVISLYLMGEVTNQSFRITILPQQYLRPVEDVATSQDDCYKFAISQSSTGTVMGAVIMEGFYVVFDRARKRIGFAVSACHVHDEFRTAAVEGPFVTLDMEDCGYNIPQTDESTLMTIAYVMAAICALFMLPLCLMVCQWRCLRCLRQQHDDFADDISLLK

| SMILES | % Inhibition (FS) (0.3 μM test compound) [%] | % Inhibition (FS) (1 μM test compound) [%] | % Inhibition (FS) (3 μM test compound) [%] | further results |
| --- | --- | --- | --- | --- |
| COc1ccc(-c2nc3ccccc3s2)c(Oc2ccc3c(c2)CN(Cc2cccc(C(=O)N(C)C4CCCCC4)c2)C(N)=N3)c1 [Compound 469] | <30 | <30 | <30 |  |
| CN1CCC(N(C)C(=O)c2cccc(C(c3ccccc3)N3Cc4cc(Oc5ccccc5)ccc4N=C3N)c2)CC1 (stereo not shown) [Compound 316] | <30 | <30 | <30 |  |
| COc1cccc(C)c1Oc1ccc2c(c1)CN(Cc1cccc(C(=O)N(C)C3CCCCC3)c1)C(N)=N2 [Compound 468] | <30 | <30 | <30 |  |
| CN(C(=O)CC[C@@H](C1CCOCC1)N1Cc2cc(Oc3ccccc3)ccc2N=C1N)[C@H]1CC[C@@H](C(=O)O)CC1 [Compound 745, (S)-Enantiomer of 4-cis-{[4-(2-Amino-6-phenoxy-4H-quinazolin-3-yl)-4-(tetrahydro-pyran-4-yl)-butyryl]-methyl-amino}-cyclohexanecarboxylic acid] |  |  |  | % Inhibition (FS) (0.3 μM compound, FS1 substrate, 0.3 µM): 115%; % Inhibition (FS) (1 μM compound, FS1 substrate, 1 µM): 114%; inhibition at 3 µM (3 μM compound, FS1 substrate, read-out: % Inhibition (FS)): 114% |
| CCCCCC(CCC(=O)NC1CCCCCC1)N1Cc2cc(Oc3ccccc3)ccc2N=C1N (stereo not shown) [Compound 150] | <30 | <30 | 90 |  |
| COC(=O)C1CCCC(N(C)C(=O)CCC(C2CCCCC2)N2Cc3cc(Oc4ccccc4)ccc3N=C2N)C1 (mixture of isomers) [Compound 777] |  |  |  | % Inhibition (FS) (0.3 μM compound, FS1 substrate): 38%; % Inhibition (FS) (1 μM compound, FS1 substrate): 97% |
| NC1=Nc2ccc(Oc3ccccc3)cc2CN1C1CCN(C(=O)C2CCCC2)C1 (stereo not shown) [Compound 120] |  |  | <30 | % Inhibition (FS) (10 μM test compound): 34% |
| CC(C)(C)C(=O)NCCN1Cc2cc(-c3ccccc3Cl)ccc2N=C1N [Compound 653] | 46 | 82 | 101 |  |
| COc1ccccc1-c1ccc2c(c1)CN(CCNC(=O)CCCN)C(N)=N2 [Compound 494] | <30 | <30 | <30 |  |
| CC(C)(C)OC(=O)NCC(C1CCCCC1)N1Cc2cc(Oc3ccccc3)ccc2N=C1N (stereo not shown) [Compound 257] | 67 | 105 | 111 |  |
| COc1ccccc1-c1ccc2c(c1)CN(CCNC(=O)C1CCN(C(C)=O)CC1)C(N)=N2 [Compound 491] | <30 | <30 |  | % Inhibition (FS) (3 μM test compound, 3 µM): 44% and <30% |
| CC(C)CCC(=O)NCC(Cc1ccc(O)cc1)N1Cc2cc(Oc3ccccc3)ccc2N=C1N (stereo not shown) [Compound 615] | <30 | <30 | <30 |  |
| COc1ccccc1-c1ccc2c(c1)CN(CCNC(=O)C1CCC(C(F)(F)F)CC1)C(N)=N2 (stereo not shown) [Compound 698] |  |  |  | % Inhibition (FS) (0.3 μM compound, FS1 substrate): <30%; % Inhibition (FS) (1 μM compound, FS1 substrate): <30%; % Inhibition (FS) (3 μM compound, FS1 substrate): 64% |
| NC1=Nc2ccc(C3=CCCCC3)cc2CN1CCNC(=O)C1CCC(C(F)(F)F)CC1 (stereo not shown) [Compound 704] |  |  |  | % Inhibition (FS) (0.3 μM compound, FS1 substrate): <30%; % Inhibition (FS) (1 μM compound, FS1 substrate): <30%; % Inhibition (FS) (3 μM compound, FS1 substrate): <30% |
| CCCC(CNC(=O)C1CCCCC1)N1Cc2cc(Oc3ccccc3)ccc2N=C1N (stereo not shown) [Compound 554] |  |  |  | % Inhibition (FS) (0.3 μM test compound, 0.3 µM): <30%; % Inhibition (FS) (1 μM test compound, 1 µM): <30%; % Inhibition (FS) (3 μM test compound, 3 µM): 42% |
| NC1=Nc2ccc(Oc3ccccc3)cc2CN1Cc1cccc(NC(=O)C2CCCCC2)c1 [Compound 286] | <30 | <30 | 36 |  |
| NC1=Nc2ccc(Oc3ccccc3)cc2CN1Cc1cccc(CNC(=O)C2CCCCC2)c1 [Compound 306] | <30 | <30 | 46 |  |
| CN(C(=O)CCC(c1ccc(Cl)cc1)N1Cc2cc(Oc3ccccc3)ccc2N=C1N)C1CCCCC1 (stereo not shown) [Compound 297] | <30 | 76 | 109 |  |
| CN(C(=O)c1cccc(CN2Cc3cc(Nc4ccc5c(c4)OCO5)ccc3N=C2N)c1)C1CCCCC1 [Compound 441] | <30 | 29 | 48 |  |
| CN(CC(=O)O)C(=O)CCC(C1CCCCC1)N1Cc2cc(Oc3ccccc3)ccc2N=C1N (stereo not shown) [Compound 767] |  |  |  | % Inhibition (FS) (0.3 μM compound, FS1 substrate): <30%; % Inhibition (FS) (1 μM compound, FS1 substrate): 71% |
| CN(C(=O)CCC(C1CCCCC1)N1Cc2cc(Oc3ccccc3)ccc2N=C1N)C1CCC(C#N)CC1 (stereo not shown) [Compound 769] |  |  |  | % Inhibition (FS) (0.3 μM compound, FS1 substrate): <30%; % Inhibition (FS) (1 μM compound, FS1 substrate): 61% |

| SMILES | % Inhibition (FS) (0.3 μM test compound) [%] | % Inhibition (FS) (1 μM test compound) [%] | % Inhibition (FS) (3 μM test compound) [%] | further results |
| --- | --- | --- | --- | --- |
| CC(CC(=O)NCCN1Cc2cc(-c3ccccc3)ccc2N=C1N)C(F)(F)F (stereo not shown) [Compound 685] |  |  |  | % Inhibition (FS) (0.3 μM compound, FS1 substrate): 50%; % Inhibition (FS) (1 μM compound, FS1 substrate): 90% |
| CN(C(=O)CC[C@@H](C1CCCCC1)N1Cc2ccc(Oc3ccccc3)cc2N=C1N)C1CCCCC1 [Compound 754] |  |  |  | % Inhibition (FS) (0.3 μM compound, FS1 substrate): 8%; % Inhibition (FS) (1 μM compound, FS1 substrate): 35%; % Inhibition (FS) (3 μM compound, FS1 substrate): 89% |
| CN(C(=O)c1cccc(CN2Cc3cc(Oc4cccc(Oc5ccccc5)c4)ccc3N=C2N)c1)C1CCCCC1 [Compound 236] | <30 | 37 | 49 |  |
| COc1ccccc1-c1ccc2c(c1)CN([C@@H](CCC(=O)N(C)Cc1csc(-c3ccccc3)n1)C1CCCCC1)C(N)=N2 [Compound 716] |  |  |  | % Inhibition (FS) (0.3 μM compound, FS1 substrate): <30%; % Inhibition (FS) (1 μM compound, FS1 substrate): <30%; % Inhibition (FS) (3 μM compound, FS1 substrate): 72% |
| COC(=O)[C@H](COCc1ccccc1)N(C)C(=O)CC[C@@H](C1CCOCC1)N1Cc2cc(Oc3ccccc3)ccc2N=C1N [Compound 786] |  |  |  | % Inhibition (FS) (0.3 μM compound, FS1 substrate): 97%; % Inhibition (FS) (1 μM compound, FS1 substrate): 105%; % Inhibition (FS) (3 μM compound, FS1 substrate): 114% |
| CN(C(=O)c1cccc(CN2Cc3cc(-c4ccccc4OCc4ccccc4)ccc3N=C2N)c1)C1CCCCC1 [Compound 327] | <30 | <30 | 48 |  |
| CN(C(=O)c1cccc(CN2Cc3cc(Oc4ccccc4S(C)(=O)=O)ccc3N=C2N)c1)C1CCCCC1 [Compound 472] | <30 | <30 | <30 |  |
| CCC[C@H](CNC(=O)CCC(C)C)N1Cc2cc(Oc3ccccc3)ccc2N=C1N [Compound 603] | 101 | 114 | 122 |  |
| NC1=Nc2ccc(Oc3ccccc3)cc2CN1C1c2ccccc2-c2cccc(C(=O)N(C3CCCCC3)C3CCCCC3)c21 (stereo not shown) [Compound 124] |  |  | 56 | % Inhibition (FS) (10 μM test compound): 67% |
| CCCC(=O)NCCN1Cc2cc(-c3ccccc3C)ccc2N=C1N [Compound 659] | 43 | 69 | 100 |  |
| N#Cc1cccc(C(=O)NCCN2Cc3cc(-c4cncnc4)ccc3N=C2N)c1 [Compound 567] | <30 | <30 | <30 |  |
| CN(C(=O)c1cccc(CN2Cc3cc(-c4ccc(C(N)=O)cc4)ccc3N=C2N)c1)C1CCCCC1 [Compound 162] | <30 | <30 | <30 |  |
| NC1=Nc2ccc(Oc3ccccc3)cc2CN1C1c2ccccc2-c2c(C(=O)N(C3CCCCC3)C3CCCCC3)cccc21 (stereo not shown) [Compound 147] |  |  | <30 | % Inhibition (FS) (10 μM test compound): 71% |
| CC(=O)N1CCC(C(=O)NCCN2Cc3cc(C4=CCCCC4)ccc3N=C2N)CC1 [Compound 705] |  |  |  | % Inhibition (FS) (0.3 μM compound, FS1 substrate): <30%; % Inhibition (FS) (1 μM compound, FS1 substrate): <30%; % Inhibition (FS) (3 μM compound, FS1 substrate): <30% |
| CCCCc1ccc(C(=O)NCCN2Cc3cc(Oc4ccccc4)ccc3N=C2N)cc1 [Compound 157] |  |  | <30 | % Inhibition (FS) (10 μM test compound): 50% |
| CN(C(=O)c1cccc(CN2Cc3cc(Nc4ccc5ccccc5c4)ccc3N=C2N)c1)C1CCCCC1 [Compound 436] | <30 | 37 | 50 |  |
| CC(C)[C@@H](CNC(=O)C12CC3CC(CC(C3)C1)C2)N1Cc2cc(Oc3ccccc3)ccc2N=C1N [Compound 553] | <30 | <30 | 49 |  |
| NC1=Nc2ccc(-c3ccccc3F)cc2CN1CCNC(=O)C1CCC(C(F)(F)F)CC1 (stereo not shown) [Compound 688] |  |  |  | % Inhibition (FS) (0.3 μM compound, FS1 substrate): <30%; % Inhibition (FS) (1 μM compound, FS1 substrate): 36%; % Inhibition (FS) (3 μM compound, FS1 substrate): 81% |
| COc1ccc(C)cc1Oc1ccc2c(c1)CN(Cc1cccc(C(=O)N(C)C3CCCCC3)c1)C(N)=N2 [Compound 467] | <30 | <30 | <30 |  |
| COc1ccc(C)cc1-c1ccc2c(c1)CN(CCNC(=O)C1CCCCC1)C(N)=N2 [Compound 630] | <30 | <30 | 48 |  |
